Test results reported in the CheMixHub viscosity set.

Test: xn = mol fraction of the nth substance listed

CCCCN + CCC(C)O
303.15 K, 101 kPa
Settings	viscosity [mPa·s]
x1 = 0.01013	2.438
x1 = 0.02003	2.41
x1 = 0.03045	2.381
x1 = 0.03818	2.364
x1 = 0.05108	2.332
x1 = 0.05904	2.313
x1 = 0.07204	2.283
x1 = 0.08279	2.26
x1 = 0.09543	2.229

CCCC(=O)OCC + CCCCCC
303.15 K, 101 kPa
Settings	viscosity [mPa·s]
x1 = 0.1354	0.3067
x1 = 0.2995	0.3404
x1 = 0.3884	0.3564
x1 = 0.4879	0.388
x1 = 0.7244	0.4602

CCCCN + CCCCCC
viscosity [mPa·s]
Settings	298.15 K	303.15 K	313.15 K
101.3 kPa, x2 = 0.0995	0.4331	–	0.3573
101.3 kPa, x2 = 0.2009	0.4017	–	0.3331
101.3 kPa, x2 = 0.2987	0.3782	–	0.3159
101.3 kPa, x2 = 0.4003	0.3564	–	0.3002
101.3 kPa, x2 = 0.4987	0.3397	–	0.2875
101.3 kPa, x2 = 0.5995	0.3249	–	0.2767
101.3 kPa, x2 = 0.7021	0.3127	–	0.2675
101.3 kPa, x2 = 0.8015	0.3036	–	0.2608
101.3 kPa, x2 = 0.8999	0.2974	–	0.2562
101.33 kPa, x1 = 0.1342	–	0.266	–
101.33 kPa, x1 = 0.2674	–	0.262	–
101.33 kPa, x1 = 0.4006	–	0.245	–
101.33 kPa, x1 = 0.5268	–	0.252	–
101.33 kPa, x1 = 0.6349	–	0.281	–
101.33 kPa, x1 = 0.7491	–	0.318	–
101.33 kPa, x1 = 0.8215	–	0.368	–
101.33 kPa, x1 = 0.9178	–	0.445	–

CCCC(=O)OCC + CCCCCCC
viscosity [mPa·s], 101.3 kPa
Settings	308.15 K	318.15 K
x1 = 0.0502	0.356	0.325
x1 = 0.1025	0.36	0.33
x1 = 0.2204	0.373	0.344
x1 = 0.2988	0.383	0.354
x1 = 0.3991	0.398	0.371
x1 = 0.5188	0.421	0.393
x1 = 0.6073	0.442	0.415
x1 = 0.6954	0.467	0.436
x1 = 0.8003	0.499	0.469
x1 = 0.9011	0.544	0.518
x1 = 0.9513	0.57	0.539

CCCCC(CC)COP(=O)(OCC(CC)CCCC)OCC(CC)CCCC (configuration not stated) + CCCCCCC
viscosity [mPa·s], 101 kPa
Settings	x1 = 0.0981	x1 = 0.2035	x1 = 0.2861	x1 = 0.4005	x1 = 0.4721	x1 = 0.5804	x1 = 0.7028	x1 = 0.8061	x1 = 0.9053
298.15 K	0.691	1.161	1.648	2.531	3.204	4.44	6.106	7.818	9.599
303.15 K	0.645	1.071	1.509	2.267	2.848	3.886	5.277	6.674	8.111
308.15 K	0.604	0.992	1.377	2.046	2.547	3.434	4.599	5.747	6.914

CCCCN + CCCCCCC
303.15 K, 101.33 kPa
Settings	viscosity [mPa·s]
x1 = 0.1262	0.355
x1 = 0.243	0.345
x1 = 0.3214	0.358
x1 = 0.4018	0.358
x1 = 0.4973	0.362
x1 = 0.6195	0.381
x1 = 0.7804	0.434
x1 = 0.8723	0.462

CCCCC(CC)COP(=O)(OCC(CC)CCCC)OCC(CC)CCCC (configuration not stated) + CCCCCCCC
viscosity [mPa·s], 101 kPa
Settings	x1 = 0.098	x1 = 0.1989	x1 = 0.2979	x1 = 0.381	x1 = 0.489	x1 = 0.5902	x1 = 0.693	x1 = 0.7952	x1 = 0.9044
298.15 K	0.83	1.287	1.852	2.52	3.555	4.707	6.118	7.688	9.668
303.15 K	0.773	1.183	1.674	2.264	3.136	4.108	5.242	6.565	8.204
308.15 K	0.722	1.074	1.498	2.016	2.759	3.592	4.585	5.632	6.964

CCCCN + CCCCCCCC
303.15 K, 101.33 kPa
Settings	viscosity [mPa·s]
x1 = 0.1275	0.462
x1 = 0.2962	0.441
x1 = 0.4015	0.433
x1 = 0.5214	0.428
x1 = 0.6438	0.42
x1 = 0.7573	0.434
x1 = 0.9231	0.478

CCC(C)(C)C + CCCCCCCCCCCC
298 K, 101.33 kPa
Settings	viscosity [mPa·s]
x1 = 0.0995	1.264
x1 = 0.2015	1.152
x1 = 0.2997	1.056
x1 = 0.3975	0.944
x1 = 0.5013	0.8256
x1 = 0.6011	0.7202
x1 = 0.7	0.6152
x1 = 0.7997	0.5206
x1 = 0.9002	0.4256

CCC(C)(C)C + CCCCCCCCCCCCCCCC
298 K, 101.33 kPa
Settings	viscosity [mPa·s]
x1 = 0.1107	2.735
x1 = 0.2098	2.405
x1 = 0.3108	2.071
x1 = 0.4014	1.788
x1 = 0.5013	1.486
x1 = 0.6057	1.211
x1 = 0.7048	0.9511
x1 = 0.8022	0.711
x1 = 0.9014	0.5046

CCCCN + CCCCCCCCCCO
viscosity [mPa·s], 101.33 kPa
Settings	x1 = 0.1009	x1 = 0.1875	x1 = 0.2926	x1 = 0.4082	x1 = 0.4885	x1 = 0.5888	x1 = 0.7198	x1 = 0.8119	x1 = 0.9029
303.15 K	7.619	6.568	5.323	4.051	3.232	2.336	1.398	0.9303	0.6273
313.15 K	5.926	5.059	4.058	3.072	2.462	1.813	1.151	0.8181	0.5744

CCCCN + CCCCCCCCO
viscosity [mPa·s], 101.33 kPa
Settings	303.15 K	313.15 K	323.15 K
x1 = 0.094	5.27	3.765	–
x1 = 0.1	5.075	3.779	2.828
x1 = 0.1949	4.391	3.129	–
x1 = 0.2011	4.061	3.065	2.358
x1 = 0.288	3.626	2.585	–
x1 = 0.3	3.239	2.487	1.942
x1 = 0.4015	2.547	1.984	1.576
x1 = 0.4199	2.665	1.929	–
x1 = 0.5003	1.995	1.59	1.289
x1 = 0.5164	2.065	1.521	–
x1 = 0.6002	1.528	1.235	1.021
x1 = 0.619	1.523	1.154	–
x1 = 0.7003	1.141	0.945	0.791
x1 = 0.7192	1.103	0.8639	–
x1 = 0.7998	0.847	0.716	0.614
x1 = 0.8084	0.8208	0.6658	–
x1 = 0.9	0.623	0.537	0.466
x1 = 0.9064	0.5902	0.5049	–

CCCCN + CCCCCCCO
viscosity [mPa·s], 101.33 kPa
Settings	303.15 K	313.15 K	323.15 K
x1 = 0.0997	4.157	3.079	2.366
x1 = 0.122	3.964	2.931	–
x1 = 0.1998	3.439	2.557	–
x1 = 0.201	3.328	2.535	1.993
x1 = 0.2914	2.866	2.134	–
x1 = 0.3	2.671	2.069	1.627
x1 = 0.4035	2.125	1.684	1.346
x1 = 0.4133	2.169	1.636	–
x1 = 0.4897	1.797	1.363	–
x1 = 0.5	1.669	1.336	1.094
x1 = 0.6006	1.294	1.056	0.879
x1 = 0.6172	1.284	0.9879	–
x1 = 0.7002	0.975	0.797	0.676
x1 = 0.7147	0.9851	0.7769	–
x1 = 0.8001	0.77	0.655	0.563
x1 = 0.8091	0.761	0.6198	–
x1 = 0.8999	0.606	0.518	0.451
x1 = 0.907	0.5793	0.4903	–

CCCC(=O)OCC(COC(=O)CCC)OC(=O)CCC + CCCCCCO
viscosity [mPa·s], 101.33 kPa
Settings	x1 = 0.1	x1 = 0.2	x1 = 0.3	x1 = 0.4	x1 = 0.5	x1 = 0.6	x1 = 0.7	x1 = 0.8	x1 = 0.9
298 K	4	4.09	4.3	4.65	5.05	5.56	6.15	6.84	7.68
303 K	3.47	3.54	3.72	4	4.36	4.8	5.27	5.86	6.54
308 K	3.02	3.08	3.26	3.49	3.79	4.15	4.57	5.07	5.63
313 K	2.65	2.71	2.85	3.07	3.33	3.64	4	4.42	4.9

CCCCN + CCCCCCO
viscosity [mPa·s], 101.33 kPa
Settings	303.15 K	313.15 K	323.15 K
x1 = 0.099	3.27	2.673	–
x1 = 0.1002	3.164	2.411	1.888
x1 = 0.2005	2.593	2.026	1.608
x1 = 0.2079	2.728	2.202	–
x1 = 0.2888	2.334	1.906	–
x1 = 0.3001	2.082	1.642	1.322
x1 = 0.4004	1.701	1.356	1.113
x1 = 0.414	1.79	1.47	–
x1 = 0.5002	1.371	1.12	0.923
x1 = 0.5223	1.39	1.161	–
x1 = 0.5987	1.155	0.9887	–
x1 = 0.6001	1.105	0.909	0.765
x1 = 0.6999	0.906	0.759	0.648
x1 = 0.7197	0.8668	0.754	–
x1 = 0.8001	0.729	0.622	0.537
x1 = 0.8124	0.6995	0.611	–
x1 = 0.8998	0.573	0.494	0.433
x1 = 0.9046	0.5625	0.4944	–

CCCCCCCCCC(=O)OCC + CCCCCO
viscosity [mPa·s], 100 kPa
Settings	x1 = 0.1005	x1 = 0.201	x1 = 0.3	x1 = 0.4	x1 = 0.498	x1 = 0.5999	x1 = 0.7009	x1 = 0.7997	x1 = 0.8996
293.15 K	3.246	2.808	2.563	2.417	2.33	2.29	2.258	2.259	2.289
298.15 K	2.839	2.481	2.277	2.156	2.086	2.052	2.031	2.036	2.061
303.15 K	2.493	2.202	2.036	1.943	1.878	1.852	1.834	1.842	1.866
308.15 K	2.218	1.965	1.827	1.744	1.698	1.683	1.668	1.676	1.702
313.15 K	1.966	1.762	1.648	1.581	1.543	1.529	1.522	1.536	1.558
318.15 K	1.823	1.586	1.492	1.438	1.408	1.396	1.396	1.408	1.432

CCCCN + CCCCCO
viscosity [mPa·s], 101.33 kPa
Settings	303.15 K	313.15 K	323.15 K
x1 = 0.097	2.5	2.042	–
x1 = 0.102	2.52	1.956	1.551
x1 = 0.1887	2.182	1.761	–
x1 = 0.2002	2.086	1.639	1.322
x1 = 0.2883	1.842	1.49	–
x1 = 0.2994	1.72	1.381	1.122
x1 = 0.388	1.53	1.264	–
x1 = 0.4012	1.431	1.162	0.957
x1 = 0.5	1.19	0.976	0.816
x1 = 0.5146	1.18	0.9969	–
x1 = 0.6008	0.996	0.829	0.697
x1 = 0.6173	0.9476	0.8283	–
x1 = 0.6995	0.819	0.693	0.592
x1 = 0.7066	0.7962	0.6999	–
x1 = 0.8002	0.68	0.583	0.505
x1 = 0.8075	0.6516	0.5757	–
x1 = 0.8845	0.559	0.4945	–
x1 = 0.8997	0.574	0.498	0.435

O=C(O)C(Cl)(Cl)Cl + CCCCCOC(C)=O
323.15 K, 101 kPa
Settings	viscosity [mPa·s]
x2 = 0.2135	3.573
x2 = 0.4325	2.146
x2 = 0.6234	1.358
x2 = 0.8421	0.807

O=[N+]([O-])c1ccc(O)cc1 + CCCCCOC(C)=O
Settings	viscosity [mPa·s]
298.15 K, 101 kPa, x1 = 0.5	1.564
